Data from article PMC5748433, “Study on the effect of EMD386088, a 5-HT6 receptor partial agonist, in enhancing the anti-immobility action of some antidepressants in rats” (Naunyn-Schmiedeberg's Archives of Pharmacology, 2017).
Read-outs that look alike come from different tables or passages of the source.

Experiments:
recombinant human CYP3A4 = recombinant human CYP3A4 (Homo sapiens, UniProt P08684); conditions: recombinant human CYP3A4, P450-Glo, 0.025 to 25 μM
Method: The enzymatic reactions were performed in white polystyrene, flat-bottom Nunc™ MicroWell™ 96-Well Microplates (Thermo Scientific, Waltham, MA USA). The luminescence signal was measured with a microplate reader in luminescence mode (EnSpire, PerkinElmer, Waltham, MA USA).

dopamine D2 = tested on: dopamine D2; parameters: method as in Jastrzębska-Więsek et al. [2013]; conditions: ref Jastrzębska-Więsek et al. [2013]; cited from earlier work
rats = assay: Modified forced swim test (FST) in rats; format: in vivo, rat; conditions: EMD386088 alone 2.5 mg/kg i.p.
Method: […]. All drugs were dissolved in distilled water immediately before administration in a volume of 2 mL/kg. All the compounds were administered intraperitoneally (i.p.). […] Control animals received vehicle according to the same schedule.
The experiment was carried out according to the modified by Detke et al. ([1995]) method of Porsolt et al. ([1978]). On the first day of an experiment, the animals were gently individually placed in Plexiglas cylinders (40 cm high, 18 cm in diameter) containing 30 cm of water maintained at 23–25 °C for 15 min. On removal from water, the rats were placed for 30 min in a Plexiglas box under 60-W bulb to dry. On the following day (24 h later), the rats were re-placed in the cylinder and the total duration of immobility, swimming, and climbing was recorded during the whole 5-min test period. The swimming behavior entailed active swimming motions, e.g., moving horizontally around in the cylinder. Climbing activity consisted of upward directed movements of the forepaws along the side of the swim chamber, and immobility was assigned when no additional activity was observed other than that necessary to keep the rat’s head above the water (Detke et al. [1995]). Fresh water was used for each animal.
The data of behavioral studies were evaluated using two-way analysis of variance (ANOVA) followed by Bonferroni’s post hoc test, p < 0.05 was considered significant.

α2-adrenoceptors = tested on: α2-adrenoceptors; parameters: method as in Jastrzębska-Więsek et al. [2013]; conditions: ref Jastrzębska-Więsek et al. [2013]; cited from earlier work
[1] = Distribution of EMD386088 in rats' brain (LC/MS/MS, non-compartmental); format: in vivo, rat
Method: Blood samples were collected at 0 min (predose), 5 min, 15 min, 30 min, 60 min, 120 min, and 240 min after injections. The blood was collected from right ventricle under anesthesia using a mixture of ketamine (50 mg/kg)/xylasine (8 mg/kg) in the ratio of 3:1, and 0.025 mL of a mixture for 10 g body weight was injected i.p. 10 min before planned blood collection. Blood and brain samples were collected under general anesthesia induced by i.p. injections of ketamine (50 mg/kg)/xylasine (8 mg/kg). The blood samples were taken into heparinized tubes, immediately centrifuged at 3500 rpm for 10 min, and plasma was collected. After the blood was drawn, the rat’s spinal cord was cut and the cerebral tissue was removed, and after dissection washed in PBS saline. The brain and plasma samples were immediately frozen at − 80 °C for LC/MS/MS analysis.
Pharmacokinetic parameters were calculated by a non-compartmental approach from the average concentration values, using Phoenix WinNonlin software (Certara, Princeton, NJ 08540 USA). First order elimination rate constant (λz) was calculated by linear regression of time versus log concentration.
The quantification of studied compounds in plasma and brain samples was done using HPLC Agilent 1100 system (Agilent Technologies, Waldbronn, Germany) coupled to the triple quadrupole mass spectrometer API 2000 (ABSciex, Framingham, Massachusetts, USA) equipped with an electrospray ion source. After preparation, the samples were injected (20 μL) onto XBridge C18 (2.1 mm × 30 mm, 3.5 μm, Waters, Milford, Massachusetts, USA) analytical column. The mobile phase consisted of ACN with 0.1% formic acid (A) and water with 0.1% formic acid (B) were delivered in gradient elution started with 90% of eluent B, increasing during 2 min to 90% of eluent A, maintained to 3 min, and then returned during 5 min to 90% of eluent B, and maintained 90% of eluent B during 5 min at a flow rate of 300 μL/min. The total time of analysis was 15 min. Electrospray ionization process was performed in positive ionization and the data acquisition was carried out in multiple reaction monitoring mode (MRM) for EMD386088 and its internal standard (nebivolol). The ion spray source settings were as follows: spray voltage: 5 kV, heater temperature: 350 °C, curtain gas: 15 psi, source gas 1: 35 psi, source gas 2: 10 psi. The ions measured were m/z 247.3 (Q1) and m/z 168.2 (Q3) for EMD386088, and m/z 406.2 (Q1) and m/z 151.1 (Q3) for IS.
A sample volume of 50 μL of plasma or brain homogenate was transferred into the clean Eppendorf tube and spiked with 5 μL of IS solution (1 μg/mL) obtaining the final concentration of 100 ng/mL. After 5 min of mixing (1500 rpm), proteins were precipitated using 150 μL ACN. After 10 min of samples shaking (1500 rpm), the incubation step was performed (10 min, 4 °C). Next, samples were centrifuged (10,000 rpm, 10 min, 4 °C) and the supernatant was transferred into chromatographic vial for LC/MS/MS analysis. The brain homogenate was prepared maintaining the tissue: phosphate-buffered saline (PBS) at a ratio of 1:5. The homogenization was carried out employing IKA® T10 Basic ULTRA-TURRAX disperser (IKA Werke GmbH & Co. KG, Staufen, Germany). After homogenization, 50 μL of sample was collected for further preparation. All samples were stored on ice during the preparation process.

5-HT6 receptor = conditions: cited from earlier work
β1-adrenoceptors = tested on: β1-adrenoceptors; parameters: method as in Jastrzębska-Więsek et al. [2013]; conditions: ref Jastrzębska-Więsek et al. [2013]; cited from earlier work
[2] = rat brain, EMD386088 2.5 mg/kg i.p. jointly with imipramine (IMI) 15 mg/kg i.p.
[3] = rat, brain, ip, 2.5 mg/kg, rat brain, EMD386088 2.5 mg/kg i.p. alone
[4] = rat, brain, ip, 2.5 mg/kg, rat brain, EMD386088 2.5 mg/kg i.p. jointly with imipramine (IMI) 15 mg/kg i.p.
[5] = rat, brain, ip, 5 mg/kg, rat brain, EMD386088 5 mg/kg i.p. alone

Sequence of recombinant human CYP3A4 (P08684 whole entry): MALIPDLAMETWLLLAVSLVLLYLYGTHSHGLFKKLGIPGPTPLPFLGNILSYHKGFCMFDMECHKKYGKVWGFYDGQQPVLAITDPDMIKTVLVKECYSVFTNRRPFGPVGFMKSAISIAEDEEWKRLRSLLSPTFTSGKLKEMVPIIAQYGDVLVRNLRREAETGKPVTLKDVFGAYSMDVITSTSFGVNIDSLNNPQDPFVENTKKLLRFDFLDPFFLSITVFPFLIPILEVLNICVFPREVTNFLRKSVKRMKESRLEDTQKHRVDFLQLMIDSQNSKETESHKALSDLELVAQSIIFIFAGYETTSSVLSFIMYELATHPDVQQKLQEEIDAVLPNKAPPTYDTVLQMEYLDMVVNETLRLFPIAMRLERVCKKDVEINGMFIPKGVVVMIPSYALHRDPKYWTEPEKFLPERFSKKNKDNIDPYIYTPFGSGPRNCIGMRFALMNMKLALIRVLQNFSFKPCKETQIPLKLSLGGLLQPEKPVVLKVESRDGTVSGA

Compound: Cc1[nH]c2ccc(Cl)cc2c1C1=CCNCC1.Cl [EMD386088, 5-chloro-2-methyl-3-(1,2,3,6-tetrahydro-4-pyridinyl)-1H-indole hydrochloride]
- influence on CYP3A4 activity (recombinant human CYP3A4): did not influence on CYP3A4 activity
- affinity for dopamine D2 (dopamine D2): no affinity
- activity in the FST (rats): not active
- affinity for α2-adrenoceptors (α2-adrenoceptors): no affinity
- Tmax ([1]; ip, rat brain, EMD386088 2.5 mg/kg i.p. alone, read-out: t max (converted)): 2 h
- Tmax ([1]; ip, rat brain, EMD386088 5 mg/kg i.p. alone, read-out: t max (converted)): 2 h
- AUC0 → t ([1]; rat brain, EMD386088 2.5 mg/kg i.p. alone): 41,936.2 ng ⋅ min/g
- AUC0 → t [1, 2]: 56,428.6 ng ⋅ min/g
- Tmax [1, 2]: 2 h
- AUC0 → t ([1]; rat brain, EMD386088 5 mg/kg i.p. alone): 84,462.8 ng ⋅ min/g
- Cmax [1, 3]: 321 ng/g
- MRT [1, 3]: 1.9 h
- Cmax [1, 4]: 277 ng/g
- MRT [1, 4]: 2.12 h
- Cmax [1, 5]: 640 ng/g
- MRT [1, 5]: 1.91 h
- Kp ([1]; rat, brain, ip, rats, EMD386088 2.5 mg/kg i.p. alone, calculated on the basis of AUC0 → t values, read-out: brain/plasma ratio): ~19
- Tmax ([1]; rat, brain, ip, rats, after i.p. administration, read-out: t max in the brain (converted)): 2 h
- decrease in penetration on coadministration with imipramine ([1]; rats, EMD386088 with imipramine vs alone): 2.5 fold
- 5-HT6 receptor functional profile (5-HT6 receptor; in vitro, ref Jastrzębska-Więsek et al. [2013]): potent 5-HT6 receptor partial agonist
- EC50 (5-HT6 receptor; read-out: EC50 5-HT6 receptor agonist, ref Mattsson et al. ([2005])): 1 nM
- affinity for β1-adrenoceptors (β1-adrenoceptors): no affinity
